According to publication PMC10603899, “Reproducibility and Robustness of a Liver Microphysiological System PhysioMimix LC12 under Varying Culture Conditions and Cell Type Combinations” (Bioengineering, 2023):
Structures can show the parent of a compound that is named as a salt. Where two headings read alike, the source gives them in different places.

Columns and labels:
PHH (TF-HU8373) + THP-1 [1] = test: Midazolam metabolism (1′-OH MDZ formation) in PhysioMimix LC-12, PHH + THP-1 co-culture; assay type: in vitro ADME, human; settings: 5 µM MDZ
Protocol: Metabolic capacity was assessed across the various cell type conditions, including both types of hepatocytes. Midazolam (MDZ) was tested as a representative substrate for CYP3A4 [43]. Cells were treated with MDZ for up to 24 h on different days of culture, with sampling at 2, 6, and 24 h after treatment. The collected media was processed using high-performance liquid chromatography tandem mass spectrometry (HPLC-MS/MS) to determine the concentration of both the remaining parent compound (MDZ) and metabolites formed (1′-OH MDZ and 1′-OH MDZ glucuronide). We also tested the metabolism of equimolar mixtures (1 or 5 µM) of 20 pesticides that were previously used to evaluate the metabolic competence of different in vitro liver models. Cells were treated on day 6 of culture, and media were collected for analysis 48 h thereafter. Samples were analyzed using either gas chromatography (GC)-MS/MS or HPLC-MS/MS to determine whether parent molecule concentrations diminished, consistent with the metabolic activity of the cells.
The day when PHHs were seeded into PhysioMimix LC12 plates was defined as day 0 (Figure 1). PHHs were cultured in the PhysioMimix LC12 following the manufacturer’s protocols. PHHs were thawed into CHRM (CM7000, Thermo Fisher), centrifuged at 100× g for 10 min, resuspended in plating media, and then seeded into the PhysioMimix LC12 scaffold at a seeding density of 475,000–600,000 cells/chip. The flow was initiated at 1 µL/s.
For co-culture conditions, THP-1 monocytes and HMEC-1 endothelial cells were seeded either on day 0 or 1 at a seeding density of 60,000–160,000 cells/chip or 60,000 cells/chip, respectively. Primary KCs, HSCs, and LSECs were seeded either on day 0 or 1 at a seeding density of 100,000 cells/chip, 35,000 cells/chip, and 70,000–140,000 cells/chip, respectively. Cell seeding ratios were determined based on previous experiments or reports of the physiological cell ratios in the human liver. Media were collected and exchanged every 1–3 days by aspirating and replacing media from the media reservoir (1.8 mL/chip).
(§1) For evaluation of MDZ metabolism, cells were exposed on days 4–16 of culture to 5 µM MDZ (dissolved in methanol for the final concentration of 0.16% v/v). After drug addition, media were collected every 2, 6, and 24 h. After 24 h, the drug treatment media were replaced with fresh maintenance media. For the experiment with pesticide mixtures, we selected chemicals from the Agency for Toxic Substances and Disease Registry Substance Priority List, which contains compounds that are commonly detected at Superfund sites and are known to be hazardous to human health. A molar-equivalent mixture was created by combining all 20 pesticides and diluting them to a final concentration of 1 or 5 μM each in dimethyl sulfoxide (DMSO, final concentration 0.5% v/v). Media was collected 48 h after treatment for the analyses detailed below. For evaluation of immune-mediated toxicity with Trovafloxacin and LPS treatment, PHHs + THP-1 monocytes or PHHs + KCs were exposed on day 6 of culture to 25 or 100 µM of Trovafloxacin, with or without LPS. After 48 h, the drug treatment media were collected for biochemical assays detailed below.
After treatment with MDZ or pesticide mixtures (Supplemental Table S3), 50 µL media samples were mixed with 100 µL of 0.1 or 1 µM internal standard (Caffeine-13C3, C-082, Millipore Sigma; Supplemental Table S3) solution in acetonitrile on ice, respectively. Samples were vortexed and centrifuged (12,000× g, 10 min, room temperature) to allow for protein precipitation. The supernatant was collected from each sample, dried under vacuum, and reconstituted in 50 µL aqueous mobile phase. The reconstituted samples were transferred to glass autosampler vials with 200 µL inserts and stored at −20 °C prior to HPLC-MS/MS analysis. […]

PHH (TF-HU8373) [2] = test: Midazolam metabolism (1′-OH MDZ formation) in 96-well plate, PHH; assay type: in vitro ADME, human; settings: day 2, incubation 24 h
Protocol: For the PHH 2D model, 96-well plates were first coated with 200 μg/mL collagen I (CB354249, Corning Inc.) and 50 μg/mL fibronectin (F1141, Sigma-Aldrich, St. Louis, MO, USA) and incubated at 37 °C, 5% CO2 for 1 h. Thawed PHHs were collected by centrifugation (100× g, 10 min), resuspended in plating media, and seeded at a density of 50,000–60,000 cells/well. After incubation overnight, the media were changed to maintenance media. The total well volume was 100 μL, and plates were incubated at 37 °C, 5% CO2, with media refreshed every 1–2 days.
After drug addition, media were collected every 2, 6, and 24 h. After 24 h, the drug treatment media were replaced with fresh maintenance media. For the experiment with pesticide mixtures, we selected chemicals from the Agency for Toxic Substances and Disease Registry Substance Priority List, which contains compounds that are commonly detected at Superfund sites and are known to be hazardous to human health. A molar-equivalent mixture was created by combining all 20 pesticides and diluting them to a final concentration of 1 or 5 μM each in dimethyl sulfoxide (DMSO, final concentration 0.5% v/v). Media was collected 48 h after treatment for the analyses detailed below. […]

PHH (TF-HU8373) + THP-1 [3] = test: Midazolam metabolism (1′-OH MDZ formation) in 96-well plate, PHH + THP-1; assay type: in vitro ADME, human; settings: PHH + THP-1, day 2, incubation 24 h
PHH (various donors) [4] = system: PHH (various donors); set-up: method as in PMID 27338863; settings: Suspension, day 0 of culture, incubation 0.17 h; cited from earlier work
PHH (various donors) [5] = system: PHH (various donors); set-up: method as in PMID 25068923; settings: LiverChip, day 4 of culture, estimated from figures, cited from earlier work
PHH (TF-HU8373) [6] = test: Midazolam metabolism (1′-OH MDZ formation) in PhysioMimix LC-12, PHH monoculture; settings: 5 µM MDZ; for 1′-OH MDZ Formed, Mean ± S.D. / 1′-OH MDZ Formed, Median: PhysioMimix LC-12, PHH
[7] = system: PHHs (donor HU8373) + THP-1 cells; test: Immune-mediated toxicity, trovafloxacin ± LPS in PhysioMimix LC12, PHH + THP-1; assay type: cell-based; settings: 48 h
Protocol: as §1
(§2) Cell culture media was collected every time media was exchanged (Figure 1) and stored frozen at −80 °C until analyses for various biomarkers, including albumin, urea, lactate dehydrogenase (LDH), and human interleukin-6 (IL-6). The ELISA assays for albumin (E88-129, Bethyl Laboratories, Montgomery, TX, USA), urea (EIABUN, ThermoFisher), LDH (ab102526, Abcam, Cambridge, UK), and IL-6 (D6050, R&D Systems) were conducted using manufacturer’s instructions. For CYP3A4 activity, the P450 Glo 3A4 with Luciferin-IPA assay (V9001, Promega, Madison, WI, USA) was used; this is a live cell assay, and it was conducted according to the manufacturer’s instructions as follows. The Luciferin-IPA substrate was diluted 1:1000 in maintenance media and added to chips or wells 1 h prior to reading luminescence using a plate reader (SpectraMax iD3, Molecular Devices, San Jose, CA, USA). After the assay, the media was replaced.
(§3) The last series of experiments was conducted to examine whether a co-culture of PHHs and NPCs in the PhysioMimix LC12 could model immune-mediated effects. […] We examined two conditions of use: HU8373 PHH with either THP-1 cells or Kupffer cells (Figure 8). Treatments (25 or 100 μM trovafloxacin) were added on […] with or without LPS (1 μg/mL) (Figure 1H) to replicate a well-established model of immune-mediated hepatotoxicity. We examined LDH leakage as a marker of cytotoxicity, CYP3A4 activity, and IL-6 secretion into the media as a marker of pro-inflammatory response. […] Few effects on CYP3A4 were observed, albeit inter-experimental variability was high (Figure 8B).
Figure 8 Immune-mediated toxicity in the PhysioMimix LC12. Changes in LDH, CYP3A4, and IL-6 after 48 h trovafloxacin exposure with and without LPS in the PhysioMimix LC12 seeded with PHHs (donor HU8373) and non-parenchymal cells (THP-1 cells or Kupffer cells). (A) LDH leakage, (B) CYP3A4 activity, and (C) IL-6 release. Endpoints were normalized to the mean of the pretreatment samples (day 6 of the experiment). Data are plotted as box (interquartile range) and whiskers (min-max) with all individual values shown (n = 2–12). […] Brackets indicate statistical significance between groups at p < 0.05 by two-way ANOVA with Tukey’s multiple comparisons test.

[8] = system: PHHs (donor HU8373) + Kupffer cells; test: Immune-mediated toxicity, trovafloxacin ± LPS in PhysioMimix LC12, PHH + Kupffer cells; assay type: cell-based; settings: 48 h
Protocol: as §1, §2, §3
Figure 8 Immune-mediated toxicity in the PhysioMimix LC12. […]

[9] = PhysioMimix LC-12, PHH + THP-1, day 6, incubation 2 h
[10] = PhysioMimix LC-12, PHH + THP-1, day 6, incubation 24 h
[11] = PhysioMimix LC-12, PHH + THP-1, day 12, incubation 24 h
[12] = 25 and 100 μM trovafloxacin + LPS (1 μg/mL)
[13] = 25 or 100 μM trovafloxacin with or without LPS (1 μg/mL)

Compound: OCc1ncc2n1-c1ccc(Cl)cc1C(c1ccccc1F)=NC2 [1′-OH-midazolam, 1-hydroxymidazolam]
- 1′-OH MDZ Formed, Mean ± S.D. (PHH (TF-HU8373) + THP-1 [1]; [9]): 2.54 ± 1.64 pmol/min/1 M Hep.
- 1′-OH MDZ Formed, Median (PHH (TF-HU8373) + THP-1 [1]; [9]): 2.11 pmol/min/1 M Hep.
- 1′-OH MDZ Formed, Mean ± S.D. (PHH (TF-HU8373) + THP-1 [1]; [10]): 0.836 ± 0.556 pmol/min/1 M Hep.
- 1′-OH MDZ Formed, Median (PHH (TF-HU8373) + THP-1 [1]; [10]): 0.997 pmol/min/1 M Hep.
- 1′-OH MDZ Formed, Mean ± S.D. (PHH (TF-HU8373) + THP-1 [1]; [11]): 0.971 ± 0.910 pmol/min/1 M Hep.
- 1′-OH MDZ Formed, Median (PHH (TF-HU8373) + THP-1 [1]; [11]): 0.933 pmol/min/1 M Hep.
- 1′-OH MDZ Formed, Mean ± S.D. (PHH (TF-HU8373) [2]): 0.163 ± 0.064 pmol/min/1 M Hep.
- 1′-OH MDZ Formed, Median (PHH (TF-HU8373) [2]): 0.189 pmol/min/1 M Hep.
- 1′-OH MDZ Formed, Mean ± S.D. (PHH (TF-HU8373) + THP-1 [3]): 0.088 ± 0.077 pmol/min/1 M Hep.
- 1′-OH MDZ Formed, Median (PHH (TF-HU8373) + THP-1 [3]): 0.061 pmol/min/1 M Hep.
- 1′-OH MDZ Formed, Mean ± S.D. (PHH (various donors) [4]): 100 ± 106 pmol/min/1 M Hep.
- 1′-OH MDZ Formed, Median (PHH (various donors) [4]): 63.7 pmol/min/1 M Hep.
- 1′-OH MDZ Formed, Mean ± S.D. (PHH (various donors) [5]; incubation 2 h): 4.55 ± 2.27 pmol/min/1 M Hep.
- 1′-OH MDZ Formed, Mean ± S.D. (PHH (various donors) [5]; incubation 24 h): 0.216 ± 0.054 pmol/min/1 M Hep.
- 1′-OH MDZ Formed, Mean ± S.D. (PHH (TF-HU8373) [6]; day 6, incubation 2 h): 2.72 ± 1.75 pmol/min/1 M Hep.
- 1′-OH MDZ Formed, Median (PHH (TF-HU8373) [6]; day 6, incubation 2 h): 2.33 pmol/min/1 M Hep.
- 1′-OH MDZ Formed, Mean ± S.D. (PHH (TF-HU8373) [6]; day 6, incubation 24 h): 0.610 ± 0.403 pmol/min/1 M Hep.
- 1′-OH MDZ Formed, Median (PHH (TF-HU8373) [6]; day 6, incubation 24 h): 0.561 pmol/min/1 M Hep.
- 1′-OH MDZ Formed, Mean ± S.D. (PHH (TF-HU8373) [6]; day 12, incubation 24 h): 0.753 ± 0.612 pmol/min/1 M Hep.
- 1′-OH MDZ Formed, Median (PHH (TF-HU8373) [6]; day 12, incubation 24 h): 0.649 pmol/min/1 M Hep.

Compound: Cc1ncc2n1-c1ccc(Cl)cc1C(c1ccccc1F)=NC2 [midazolam, Midazolam]
- Midazolam metabolism over time in culture (PHH (TF-HU8373) [6]; PhysioMimix LC12, HU8373 PHH, different cell combinations, 24 h): remained consistent over time

Compound: N[C@@H]1[C@H]2CN(c3nc4c(cc3F)c(=O)c(C(=O)O)cn4-c3ccc(F)cc3F)C[C@@H]12 [trovafloxacin, Trovafloxacin mesylate]
- IL-6 secretion into the media ([7]; 100 μM trovafloxacin): Increases
- Potentiating effect of LPS on trovafloxacin (IL-6 release) [7, 12]: not THP-1 cells
- Effect on CYP3A4 activity [7, 13]: Few effects
- LDH leakage as compared to pre-treatment levels [7, 13]: Significant increases
- IL-6 secretion into the media ([8]; 100 μM trovafloxacin): Increases
- Potentiating effect of LPS on trovafloxacin (IL-6 release) [8, 12]: significant potentiating effect
- Effect on CYP3A4 activity [8, 13]: Few effects

Compound: Lipopolysaccharide [LPS]
- IL-6 secretion into the media ([7]; LPS alone (1 μg/mL)): Increases
- IL-6 secretion into the media ([8]; LPS alone (1 μg/mL)): Increases
